This is an account of results in patent US6407096B1, “Benzene fused heterocyclic derivatives having thromboxane A2 receptor antagonistic activity and prostaglandin I2 Agonistic activity and application thereof” (Toray Industries, Inc., priority 1998, dated 2002).

Data set [1] deals with platelet-rich plasma (PRP), platelet aggregation induced by TXA2 agonist U-46619. The experiment in a line: Platelet aggregation inhibiting action 1 (U-46619-induced aggregation in PRP). As to conditions: human PRP, aggregation induced by U-46619 (final 1 to 4 μM), compound added 1 minute before. The data set is classed as cell-based. How it is done:
The blood collected from the human medial cubital vein was centrifuged at 800 rpm for 10 minutes, and the upper portion was collected as platelet-rich plasma (PRP). PRP was dispensed to small test tubes, and TXA2 agonist U-46619 was added thereto (the final concentration 1 to 4 μM) to induce platelet aggregation. The degree of platelet aggregation was measured as a change in turbidity by a platelet aggregation measuring device (Hematracer 1, Nikko Bioscience). Each compound was added 1 minute before the addition of U-46619, and a concentration at which aggregation was 50% inhibited was calculated as a IC50 value.

The subject of data set [2] is platelet-rich plasma (PRP), platelet aggregation induced by ADP. The experiment in a line: Platelet aggregation inhibiting action 2 (ADP-induced aggregation in PRP). As to conditions: human PRP, aggregation induced by ADP (final 1 to 10 μM), compound added 1 minute before. Type of data set: cell-based. As for the experimental part:
The blood collected from the human medial cubital vein was centrifuged 800 rpm for 10 minutes, and the upper portion was collected as platelet-rich plasma (PRP). PRP was dispensed to small test tubes, and ADP was added thereto (the final concentration 1 to 10 μM) to induce platelet aggregation. The degree of platelet aggregation was measured as a change in turbidity by a platelet aggregation measuring device (Hematracer 1, Nikko Bioscience). Each compound was added 1 minute before the addition of ADP, and a concentration at which aggregation was 50% inhibited was calculated as IC50 value.

A further data set has as its target T1, TXA2 receptor (Homo sapiens, UniProt P21731).
T1 construct: The finally obtained sediment was used as a platelet membrane fraction; from tissue; host or cells: human platelets (membrane fraction from venous blood)
T1 sequence (P21731 1-343): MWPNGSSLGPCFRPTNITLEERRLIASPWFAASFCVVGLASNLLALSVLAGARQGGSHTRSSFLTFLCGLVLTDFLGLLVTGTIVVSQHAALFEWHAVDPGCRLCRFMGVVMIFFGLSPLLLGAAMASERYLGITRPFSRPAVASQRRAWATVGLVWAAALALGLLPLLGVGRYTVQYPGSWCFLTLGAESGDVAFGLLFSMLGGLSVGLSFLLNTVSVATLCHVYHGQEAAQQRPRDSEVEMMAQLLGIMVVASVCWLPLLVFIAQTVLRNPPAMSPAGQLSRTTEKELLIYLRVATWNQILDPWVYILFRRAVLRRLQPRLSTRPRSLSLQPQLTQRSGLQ
The experiment in a line: TXA2 receptor binding test ([3H]SQ29548, platelet membrane fraction). Conditions: [3H]SQ29548 10 nM, 25° C., 30 minutes, read-out: TXA2 receptor affinity Ki. How it is done: The blood collected from the human antebrachial vein and 1/10 volume of ACD solution (85 mM trisodium citrate, 65 mM citric acid, 2% glucose) were mixed, and 8 ml of the mixture was dispensed to each of Spitz tubes. The platelet-rich plasma obtained by centrifugation at room temperature and 200×g for 10 minutes was further centrifuged at 1000×g for 15 minutes to obtain platelets. The thus-obtained platelets were centrifugally washed with a cleaning buffer (115 mM sodium chloride, 4.3 mM potassium dihydrogen phosphate, 5.5 mM glucose, 1 mM disodium EDTA, 10 μM […], pH 6.5), and 1 ml of a dissolution buffer (10 mM tris(hydroxymethyl)aminomethane, 5 mM magnesium chloride, 2 mM disodium EDTA, pH 7.4) was added to-the platelets, followed by three times of freezing in liquid nitrogen and melting at room temperature to crush the platelets. The crushed platelets were cleaned by three times of ultracentrifugation (40000×g, 20 minutes each) using […] ice-cold tris-hydrochloric acid buffer. The finally obtained sediment was used as a platelet membrane fraction.
As a TXA2 receptor ligand, tritium-labeled SQ29548 ([^3H]SQ29548) was used. As a solvent for receptor binding reaction, a 50 mM tris-hydrochloric acid buffer ([…] magnesium chloride, pH 7.4) was used. A saturation test was conducted by reaction of [^3H]SQ29548 (100 μl) at a final concentration of 3 to 100 nM and 0.1 mg protein/ml of platelet membrane fraction suspension (100 μl) at 25° C. for 30 minutes under shaking. […] Then, radioactivity was measured by a scintillation counter. Nonspecific binding to a substance other than the receptor was determined by reaction in the presence of SQ29548 at a final concentration of […]. In the competitive experiment, IC50 value and Hill coefficient of each of the test compounds were determined by pseudo-Hill plots, and the receptor dissociation constant (Ki value) was determined from the IC50 value and the receptor dissociation constant (Kd value) of [^3H]SQ29548, which was obtained by saturation experiment, according to the following equation: […]

Another data set has as its target T2, PGI2 receptor (Homo sapiens, UniProt P43119).
T2 construct: 0.1 mg protein/ml of platelet membrane fraction suspension (100 μl) at 4° C. for 60 minutes; from tissue; host or cells: platelets (membrane fraction)
The experiment in a line: PGI2 receptor binding experiment (tritium-labeled compound A, platelet membrane fraction). As to conditions: tritium-labeled compound A 10 nM, 4° C., 60 minutes, read-out: PGI2 receptor affinity Ki. How it is done:
As a PGI2 receptor ligand, tritium-labeled (1R, 2R, 3aS, 8bS)-2,3,3a,8b-tetrahydro-2-hydroxy-1-[(E)-(3S, 4S)-3-hydroxy-4-methyl-1-octene-6-ynyl]-1H-cyclopenta [b]benzofuran-4-butanoic acid (compound A) was used. A saturation test was conducted by reaction of compound A (100 μl) at a final concentration of 3 to 100 nM and 0.1 mg protein/ml of platelet membrane fraction suspension (100 μl) at 4° C. for 60 minutes under shaking. Competitive experiment was carried out by reaction of a mixed solution (100 μl) of a test compound dissolved in an appropriate solvent and diluted and compound A at a final concentration of 10 nM, and 0.1 mg protein/ml of platelet membrane fraction suspension (100 μl) at 4° C. for 60 minutes under shaking. After the completion of reaction, the membrane fraction was recovered on a glass filter by a cell harvester, and washed with an ice-cold buffer. Then, radioactivity was measured by a scintillation counter. Nonspecific binding to a substance other than the receptor was determined by reaction in the presence of beraprost sodium at a final concentration of […]. In the competitive experiment, IC50 value and Hill coefficient of each of test compounds were determined by pseudo-Hill plots, and the receptor dissociation constant (Ki value) was determined from the IC50 value and the receptor dissociation constant (Kd value) of compound A, which was obtained by saturation experiment, according to the following equation:
Ki value=IC50 value/[1+(radioactive ligand concentration/Kd value)]

T2 sequence (P43119 whole entry): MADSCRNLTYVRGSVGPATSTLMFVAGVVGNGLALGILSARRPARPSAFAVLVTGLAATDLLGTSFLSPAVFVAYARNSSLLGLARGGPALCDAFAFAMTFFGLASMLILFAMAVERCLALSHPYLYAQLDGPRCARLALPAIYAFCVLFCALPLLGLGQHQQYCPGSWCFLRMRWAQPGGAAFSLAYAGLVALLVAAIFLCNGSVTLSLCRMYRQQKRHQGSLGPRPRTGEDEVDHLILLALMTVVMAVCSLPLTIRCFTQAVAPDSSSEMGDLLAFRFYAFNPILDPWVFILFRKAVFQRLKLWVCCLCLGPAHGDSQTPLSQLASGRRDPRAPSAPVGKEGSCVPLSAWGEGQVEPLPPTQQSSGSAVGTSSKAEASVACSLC

For `O=C(O)COc1cccc2c1OCCN2CCSC(c1ccccc1)c1ccccc1` [Example 20, (4-(2-(diphenylmethylthio)ethyl)-3,4-dihydro-2H-1,4-benzoxazin-8-yloxy)acetic acid], the melting point worked out at 172.5 °C. The molecule also showed an IC50 in data set [1] of 1300 nM. In data set [2], the IC50 turned out to be 2000 nM.

With `CC(SCCC1COc2c(OCC(=O)O)cccc21)(c1ccccc1)c1ccccc1` (stereo not drawn) [Example 37, (3-(2-(1,1-diphenylethylthio)ethyl)-2,3-dihydrobenzofuran-7-yloxy)acetic acid], the melting point lay in the range of 65 to 67 °C. The same molecule came in with an IC50 in data set [1] of 490 nM. The molecule further showed a half-maximal inhibitory concentration (IC50) in data set [2] of 1800 nM.

On to `CC(OCCN1CCOc2c(OCC(=O)O)cccc21)(c1ccccc1)c1ccccc1` [Example 29, (4-(2-(1,1-diphenylethoxy)ethyl)-3,4-dihydro-2H-1,4-benzoxazin-8-yloxy)acetic acid], for which the melting point amounted to 108 °C. For the same molecule, in data set [1], the IC50 came to 5500 nM. Further, in data set [2], the IC50 came to 16000 nM.

Molecule `CC(SCCN1CCCc2c(OCC(=O)O)cccc21)(c1ccccc1)c1ccccc1` [Example 34, (1-(2-(1,1-diphenylethylthio)ethyl)-1,2,3,4-tetrahydroquinolin-5-yloxy)acetic acid] returned a melting point of 150.5 to 152 °C. Moreover, the IC50 in data set [1] came to 590 nM. The same molecule returned a half-inhibitory concentration (IC50) in data set [2] of 1300 nM. Further, the Ki on TXA2 receptor is 120 nM. For the same molecule, on PGI2 receptor, the Ki is 520 nM.

In turn, `O=C(O)COc1cccc2c1OCCN2CCOC(c1ccccc1)c1ccccc1` [Example 28, (4-(2-(diphenylmethoxy)ethyl)-3,4-dihydro-2H-1,4-benzoxazin-8-yloxy)acetic acid] gave a melting point of 112 to 113 °C. The same molecule returned a 50% inhibitory concentration (IC50) in data set [1] of 5700 nM. In addition, it took 16000 nM to reach half-maximal inhibition in data set [2] (IC50).

Molecule `O=C(O)COc1cccc2c1OCC2CCSC(c1ccccc1)c1ccccc1` (stereo not drawn) [Example 36, (3-(2-(diphenylmethylthio)ethyl)-2,3-dihydrobenzofuran-7-yloxy)acetic acid] displayed a melting point of 88 to 89 °C. The concentration for half-maximal inhibition (IC50) in data set [1] was 550 nM. In addition, the concentration for half-maximal inhibition (IC50) in data set [2] was 950 nM. The Ki at TXA2 receptor is 70 nM. On PGI2 receptor, the inhibition constant (Ki) worked out at 230 nM.

Take `CC(SCCN1CCOc2c(OCC(=O)O)cccc21)(c1ccccc1)c1ccccc1` [Example 21, (4-(2-(1,1-diphenylethylthio)ethyl)-3,4-dihydro-2H-1,4-benzoxazin-8-yloxy)acetic acid]: the melting point lay within 161 to 161.5 °C. In data set [1], this molecule gave a half-maximal inhibitory concentration (IC50) of 550 nM. For the same molecule, inhibition in data set [2] was half-maximal at 1800 nM (IC50). For the same molecule, the Ki at TXA2 receptor worked out at 50 nM. On PGI2 receptor, the Ki turned out to be 430 nM.
